# Source: patent US10759781B2, “Substituted guanidine derivatives” (UBE INDUSTRIES, LTD., priority 2015, dated 2020)
# Key:
# [1] = target: T1, Rat Plasma VAP-1 (Rattus norvegicus, UniProt O08590); experiment: (Ex vivo) rat plasma VAP-1 inhibition test after oral administration of the compound; type: in vivo; details: 3 hours after oral administration, SD male rats, read-out: inhibition ratio (plasma VAP-1, ex vivo)
# T1 construct: from tissue; host or cells: plasma of SD male rats (7-12 weeks old) after oral dosing
# T1 sequence (O08590 28-763 limits assumed): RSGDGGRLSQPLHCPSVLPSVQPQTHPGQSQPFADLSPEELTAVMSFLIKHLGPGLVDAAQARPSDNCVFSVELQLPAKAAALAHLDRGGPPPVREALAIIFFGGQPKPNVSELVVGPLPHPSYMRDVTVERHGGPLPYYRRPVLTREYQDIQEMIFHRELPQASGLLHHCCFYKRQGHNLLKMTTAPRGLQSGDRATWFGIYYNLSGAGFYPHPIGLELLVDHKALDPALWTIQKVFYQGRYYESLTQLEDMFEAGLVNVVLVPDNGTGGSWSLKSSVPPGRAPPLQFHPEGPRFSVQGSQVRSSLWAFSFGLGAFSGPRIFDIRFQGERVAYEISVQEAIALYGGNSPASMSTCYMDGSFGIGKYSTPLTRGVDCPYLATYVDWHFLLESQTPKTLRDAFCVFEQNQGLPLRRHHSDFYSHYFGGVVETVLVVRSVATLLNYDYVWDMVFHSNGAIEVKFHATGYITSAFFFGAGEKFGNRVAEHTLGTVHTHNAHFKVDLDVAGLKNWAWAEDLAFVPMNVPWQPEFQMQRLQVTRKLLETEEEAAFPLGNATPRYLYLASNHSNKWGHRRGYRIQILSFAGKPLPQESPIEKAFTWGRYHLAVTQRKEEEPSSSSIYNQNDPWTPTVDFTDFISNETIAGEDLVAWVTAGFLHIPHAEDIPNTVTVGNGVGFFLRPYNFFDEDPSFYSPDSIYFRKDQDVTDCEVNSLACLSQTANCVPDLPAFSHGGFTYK
# Experimental: (Ex Vivo) Rat Plasma VAP-1 Inhibition Test after Oral Administration of the Compound
# The compound was orally administered (0.3-10 mg/kg) to 7-12 week old SD male rats in the non-fasting state. Under anesthesia, the blood was collected in heparin tubes from the jugular vein before the administration and 3, 8 and 24 hours after the administration. The blood was centrifuged at 14000 rpm for 10 minutes to get plasma. The VAP-1 enzyme activity in the plasma was measured by radiochemical enzyme assay.
# The radiochemical enzyme assay was conducted by modifying the method of P. H. Yu et al. (Diabetologia 40 1243 (1997)). ^14C-benzylamine (2.5 μM) was added to the obtained plasma, and was incubated at 37° C. for 3 hours. The reaction was terminated by the addition of 100 μL of 2 M citric acid solution to the reaction solution. The oxidative product was extracted using a toluene/ethyl acetate mixture and the radioactivity was measured with a liquid scintillation counter. The inhibition ratio of the compound was calculated using the following equation. Inhibition ratio={1−[Plasma VAP-1 activity after administration of the compound]/[Plasma VAP-1 activity before administration]}×100
# [2] = test system: Human normal glomerular microvascular endothelial cells; type: cell-based; details: 2 days, 100 nM
# Experimental: The Cytotoxicity Inhibition Test in Human Normal Glomerular Microvascular Endothelial Cells
# (§1) Human normal glomerular microvascular endothelial cells were plated at 6000 cells/well in a collagen-coated 96-well culture plate. After one day of culture, the medium at each well was completely removed by aspiration and replaced with 50 μL of the compound solution diluted with the basal medium. The basal medium containing 0.1% DMSO was added to control wells. Following, the plate was incubated in CO2 incubator for 30 minutes. Fifty microliter of 2 mM methylamine diluted with the basal medium was added (final concentration 1 mM) to each negative control well (0% inhibition) as well as the compound-containing well, and 50 μL of the basal medium was added to each positive control well (100% inhibition). The plate was incubated in CO2 incubator for 2 days. Ten microliter of CCK-8 was added to each well and the mixtures were incubated in a plate incubator at 37° C. for approximately 2 hours after stirring with a plate shaker. The absorbance of the mixtures at 450 nm was measured with a multiplate reader. The cytotoxicity inhibition ratio of the compound was calculated from the following equation. Inhibition ratio={[Average absorbance of the compound-containing wells]−[Average absorbance of negative control wells]}/{[Average absorbance of positive control wells]−[Average absorbance of negative control wells]}×100
# [3] = test system: Human normal hepatic sinusoid-like microvascular endothelial cells; type: cell-based; details: 2 days, 300 nM
# Experimental: The Cytotoxicity Inhibition Test in Human Normal Hepatic Sinusoid-Like Microvascular Endothelial Cells
# as §1, with “hepatic sinusoid-like” for “glomerular”
# [4] = target: T2, Human VAP-1 enzyme (Homo sapiens, UniProt Q16853); experiment: Human VAP-1 enzyme inhibition test; type: biochemical; details: 1 h; compound 30 nM; 14C-benzylamine 100 μM; read-out: inhibition ratio (human VAP-1 enzyme)
# T2 construct: purchased R&D Systems, Inc
# T2 sequence (Q16853 1-763): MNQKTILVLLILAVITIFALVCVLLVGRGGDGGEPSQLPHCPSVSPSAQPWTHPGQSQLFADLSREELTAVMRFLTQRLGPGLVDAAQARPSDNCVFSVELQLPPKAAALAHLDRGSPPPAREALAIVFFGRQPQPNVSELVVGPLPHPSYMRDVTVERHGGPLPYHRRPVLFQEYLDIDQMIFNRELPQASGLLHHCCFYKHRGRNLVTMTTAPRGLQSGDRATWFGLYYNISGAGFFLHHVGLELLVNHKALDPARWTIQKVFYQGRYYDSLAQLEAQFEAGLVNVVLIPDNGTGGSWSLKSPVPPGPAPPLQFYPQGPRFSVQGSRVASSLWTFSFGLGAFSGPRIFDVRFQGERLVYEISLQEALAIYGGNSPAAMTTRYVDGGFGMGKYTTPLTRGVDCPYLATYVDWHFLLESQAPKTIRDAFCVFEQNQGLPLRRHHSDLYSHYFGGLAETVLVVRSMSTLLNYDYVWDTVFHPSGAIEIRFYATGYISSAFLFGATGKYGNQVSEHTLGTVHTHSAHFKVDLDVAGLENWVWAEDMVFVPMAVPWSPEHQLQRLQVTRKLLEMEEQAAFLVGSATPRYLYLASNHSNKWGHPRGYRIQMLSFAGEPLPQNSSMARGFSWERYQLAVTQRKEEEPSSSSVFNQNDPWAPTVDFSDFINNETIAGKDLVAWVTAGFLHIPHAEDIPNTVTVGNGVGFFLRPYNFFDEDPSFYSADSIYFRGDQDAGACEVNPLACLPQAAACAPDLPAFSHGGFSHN
# Summary of the method: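 Recombinant human VAP-1 pre-incubated 20 min at room temperature with compound in DMSO, then reacted with 14C-benzylamine (100 μM final) 1 h at 37 °C. Citric acid stop; oxidized product extracted into toluene/ethyl acetate and counted by liquid scintillation. Inhibition ratio relative to DMSO-only activity.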
SMILES,inhibition in vivo at 0.3 mg/kg [1],inhibition at 0.03 µM [4],cytotoxicity inhibition ratio [2],cytotoxicity inhibition ratio [3]
"CCON=C1CN(c2ncc(-c3cccc(COC(=O)NC(=N)N)c3F)cn2)C1 [Example 2, 3-{2-[3-(Ethoxyimino)azetidin-1-yl]pyrimidin-5-yl}-2-fluorobenzyl carbamimidoylcarbamate]",≥ 50%,,≥ 50%,≥ 50%
"[2H]C([2H])([2H])ON=C1CN(c2ncc(-c3cccc(COC(=O)NC(=N)N)c3F)cn2)C1 [Example 3, 2-Fluoro-3-(2-{3-[(methoxy-d3)imino]azetidin-1-yl}pyrimidin-5-yl)benzyl carbamimidoylcarbamate]",≥ 50%,≥ 50%,≥ 50%,≥ 50%
"N=C(N)NC(=O)OCc1cccc(-c2cnc(N3CC(=NOCCF)C3)nc2)c1F [Example 5, 2-Fluoro-3-(2-{3-[(2-fluoroethoxy)imino]azetidin-1-yl}pyrimidin-5-yl)benzyl carbamimidoylcarbamate]",≥ 50%,,≥ 50%,≥ 50%
"CC(=O)OC1CC(ON=C2CN(c3ncc(-c4cccc(COC(=O)NC(=N)N)c4F)cn3)C2)C1 (stereo not drawn) [Example 133, 3-[({1-[5-(3-{[(Carbamimidoylcarbamoyl)oxy]methyl}-2-fluorophenyl)pyrimidin-2-yl]azetidin-3-ylidene}amino)oxy]cyclobutyl acetate]",≥ 50%,≥ 50%,≥ 50%,≥ 50%
"N=C(N)NC(=O)OCc1cccc(-c2cnc(N3CC(=NOC4CC(O)C4)C3)nc2)c1F (stereo not drawn) [Example 134, 2-Fluoro-3-(2-{3-[(3-hydroxycyclobutoxy)imino]azetidin-1-yl}pyrimidin-5-yl)benzyl carbamimidoylcarbamate]",≥ 50%,≥ 50%,≥ 50%,≥ 50%

# The next lines start with results.
inhibition in vivo at 0.3 mg/kg [1],inhibition at 0.03 µM [4],SMILES,cytotoxicity inhibition ratio [2],cytotoxicity inhibition ratio [3]
≥ 50%,≥ 50%,"CS(=O)(=O)N1CC(ON=C2CN(c3ncc(-c4cccc(COC(=O)NC(=N)N)c4F)cn3)C2)C1 [Example 141, 2-Fluoro-3-{2-[3-({[1-(methylsulfonyl)azetidin-3-yl]oxy}imino)azetidin-1-yl]pyrimidin-5-yl}benzyl carbamimidoylcarbamate]",≥ 50%,≥ 50%
≥ 50%,≥ 50%,"Cn1cc(CON=C2CCN(c3ncc(-c4cccc(COC(=O)NC(=N)N)c4F)cn3)CC2)cn1 [Example 174, 2-Fluoro-3-[2-(4-{[(1-methyl-1H-pyrazol-4-yl)methoxy]imino}piperidin-1-yl)pyrimidin-5-yl]benzyl carbamimidoylcarbamate]",,
≥ 50%,≥ 50%,"N=C(N)NC(=O)OCc1cccc(-c2cnc(N3CCC(=NOCCn4cccn4)CC3)nc2)c1F [Example 175, 3-[2-(4-{[2-(1H-pyrazol-1-yl)ethoxy]imino}piperidin-1-yl)pyrimidin-5-yl]-2-fluorobenzyl carbamimidoylcarbamate]",,
≥ 50%,≥ 50%,"N=C(N)NC(=O)OCc1cccc(-c2cnc(N3CCC(=NOCc4ccncc4)CC3)nc2)c1F [Example 176, 2-Fluoro-3-(2-{4-[(pyridin-4-ylmethoxy)imino]piperidin-1-yl}pyrimidin-5-yl)benzyl carbamimidoylcarbamate]",,
≥ 50%,≥ 50%,"N=C(N)NC(=O)OCc1cccc(-c2cnc(N3CCC(=NOCCN4C(=O)CCC4=O)CC3)nc2)c1F [Example 177, 3-[2-(4-{[2-(2,5-Dioxopyrrolidin-1-yl)ethoxy]imino}piperidin-1-yl)pyrimidin-5-yl]-2-fluorobenzyl carbamimidoylcarbamate]",,
≥ 50%,≥ 50%,"N=C(N)NC(=O)OCc1cccc(-c2cnc(N3CCC(=NOCCN4CCCC4=O)CC3)nc2)c1F [Example 178, 2-Fluoro-3-[2-(4-{[2-(2-oxopyrrolidin-1-yl)ethoxy]imino}piperidin-1-yl)pyrimidin-5-yl]benzyl carbamimidoylcarbamate]",,
≥ 50%,≥ 50%,"N=C(N)NC(=O)OCc1cccc(-c2cnc(N3CCC(=NOc4cncnc4)CC3)nc2)c1F [Example 182, 2-Fluoro-3-(2-{4-[(pyrimidin-5-yloxy)imino]piperidin-1-yl}pyrimidin-5-yl)benzyl carbamimidoylcarbamate]",,
≥ 50%,≥ 50%,"N=C(N)NC(=O)OCc1cccc(-c2cnc(N3CCC(=NOc4ncccn4)CC3)nc2)c1F [Example 183, 2-Fluoro-3-(2-{4-[(pyrimidin-2-yloxy)imino]piperidin-1-yl}pyrimidin-5-yl)benzyl carbamimidoylcarbamate]",,
